{"source": "paper PMC6413339", "about": "(EBioMedicine, 2019)", "key": {"[1]": {"test_system": "MOLM-14 (ITD, D835Y) cells", "experiment": "Antiproliferative activity (CellTitre-Blue, 72 h)", "format": "cell-based, human", "conditions": "72 h incubation, triplicates; listed as 20 (HSN459); read-out: IC50 (mean ±SD, nM) MOLM-14 (ITD, D835Y)", "description": "(§1) Cells were seeded into 96-well tissue culture-treated plates at 2.0 × 10^4 cells/mL for up to 24 h. DMSO stock solutions of compounds were serially diluted first in DMSO and subsequently into RPMI before being added to the cell cultures in triplicates, with 10 μM being the highest tested concentration. The plates were incubated for 72 h as above. The CellTitre-Blue assay (Promega, Madison WI) was then added to the cultures and incubated a further 4 h before the fluorescence measured following the manufacturers recommendations. The fluorescence data from compounds were normalized to that DMSO and the resulting data fitted to a non-linear regression equation to obtain IC50 using GraphPad Prism 5.0 Software (La Jolla, CA, USA)."}, "[2]": {"test_system": "MOLM-14 (ITD, F691 L) cells", "experiment": "Antiproliferative activity (CellTitre-Blue, 72 h)", "format": "cell-based, human", "conditions": "72 h incubation, triplicates; listed as 20 (HSN459); read-out: IC50 (mean ±SD, nM) MOLM-14 (ITD, F691 L)", "description": "as §1"}, "MOLM-14 cells": {"test_system": "MOLM-14 cells", "experiment": "Antiproliferative activity (CellTitre-Blue, 72 h)", "format": "cell-based, human", "conditions": "Homo sapiens, MOLM-14; 72 h incubation, triplicates; read-out: IC50 (mean ±SD, nM) MOLM-14", "description": "as §1"}, "MV4–11 cells": {"test_system": "MV4–11 cells", "experiment": "Antiproliferative activity (CellTitre-Blue, 72 h)", "format": "cell-based, human", "conditions": "Homo sapiens, MV4-11, 72 h, 72 h incubation, triplicates; read-out: IC50 (mean ±SD, nM) MV4–11", "description": "as §1"}, "FLT3": {"biological_target": "T1, FLT3 (Homo sapiens, UniProt P36888)", "T1 construct": "purchased Invitrogen PV3182", "T1 sequence (P36888 564-993 limits assumed)": "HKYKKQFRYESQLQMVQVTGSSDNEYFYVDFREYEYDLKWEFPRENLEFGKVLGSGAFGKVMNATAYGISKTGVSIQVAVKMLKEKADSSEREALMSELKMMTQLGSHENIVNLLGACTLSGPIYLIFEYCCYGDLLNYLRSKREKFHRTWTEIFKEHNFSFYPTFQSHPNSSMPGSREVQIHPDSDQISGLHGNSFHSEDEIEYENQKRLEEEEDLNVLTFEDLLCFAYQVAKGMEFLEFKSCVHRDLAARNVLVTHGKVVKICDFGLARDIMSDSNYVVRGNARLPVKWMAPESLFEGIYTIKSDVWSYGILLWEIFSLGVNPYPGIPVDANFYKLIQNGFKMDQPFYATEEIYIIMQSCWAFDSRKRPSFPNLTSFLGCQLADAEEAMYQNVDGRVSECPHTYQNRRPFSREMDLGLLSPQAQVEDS", "experiment": "Cell-free kinase assay, single dose (Reaction Biology, ADP-Glo)", "format": "biochemical", "conditions": "inhibitor 500 nM; 100 μM ATP; average of duplicate", "description": "Cell-free kinase activity assays were performed at Reaction Biology Corporation. […] DMSO was used as control. […] Experiments were performed in duplicates. The concentrations of kinases and substrates used in the assays are indicated on Table S1. Kinase activity was quantified using the ADP-Glo™ Kinase Assay System (Promega, Madison, WI) following the manufacturer's recommendations."}, "Src": {"biological_target": "T2, Src (Homo sapiens, UniProt P12931)", "T2 construct": "purchased Invitrogen PR4336E", "T2 sequence (P12931 whole entry)": "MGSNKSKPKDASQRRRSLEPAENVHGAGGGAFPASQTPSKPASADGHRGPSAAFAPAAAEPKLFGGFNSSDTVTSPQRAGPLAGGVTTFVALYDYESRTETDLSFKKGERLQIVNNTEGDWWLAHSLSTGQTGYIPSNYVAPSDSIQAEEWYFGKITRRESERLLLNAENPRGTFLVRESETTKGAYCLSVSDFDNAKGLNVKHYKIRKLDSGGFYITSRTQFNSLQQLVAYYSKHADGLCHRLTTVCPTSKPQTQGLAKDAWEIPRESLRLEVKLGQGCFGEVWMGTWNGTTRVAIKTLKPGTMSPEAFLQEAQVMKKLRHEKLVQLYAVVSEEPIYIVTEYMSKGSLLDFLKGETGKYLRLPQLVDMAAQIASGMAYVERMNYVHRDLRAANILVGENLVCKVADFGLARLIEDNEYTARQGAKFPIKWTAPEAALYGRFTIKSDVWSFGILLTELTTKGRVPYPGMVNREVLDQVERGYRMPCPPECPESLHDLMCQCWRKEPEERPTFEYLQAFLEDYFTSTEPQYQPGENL", "experiment": "Cell-free kinase assay (Reaction Biology, ADP-Glo)", "format": "biochemical", "description": "(§2) Cell-free kinase activity assays were performed at Reaction Biology Corporation. Briefly, kinases were incubated with substrates, 100 μM ATP and a 3-fold serial dilution of compounds starting at 1 μM. DMSO was used as control. […] Experiments were performed in duplicates. The concentrations of kinases and substrates used in the assays are indicated on Table S1. Kinase activity was quantified using the ADP-Glo™ Kinase Assay System (Promega, Madison, WI) following the manufacturer's recommendations."}, "FLT3-ITD": {"biological_target": "FLT3-ITD (Homo sapiens, UniProt P36888, ITD)", "experiment": "Cell-free kinase assay, dose-response (Reaction Biology, ADP-Glo)", "format": "biochemical", "conditions": "FLT3-ITD 100 nM; ATP 100 μM; read-out: IC50 against FLT3-ITD", "description": "as §2"}, "MV4–11-luc cells": {"test_system": "MV4–11-luc cells", "experiment": "In vivo efficacy, orthotopic human AML model", "description": "The in vivo efficacy of compounds was assessed in an orthotopic human AML model in NSG (NOD scid gamma, NOD-scid IL2Rg^null) mice that were bred at University of Maryland Baltimore (mating pairs acquired from Jackson Laboratories; Maine). […]. Three days later, engraftment was assessed by imaging on a Xenogen IVIS-2 Imaging System (Alameda) after an intraperitoneal (IP) injection of 150 mg/kg luciferin. Mice were sorted into four or five groups (n = 5) so that mean intensity (i.e., disease burden) was equal. Dosing started on day of sorting. Compounds were dissolved in 85% PBS (pH 7.4) buffer containing 10% DMSO and 5% Cremophore. The vehicle (buffer without compounds) was used as control. Mice were injected 3 to 5 days per week via IP injection. Mice were weighed on day of dosing and imaged once per week. […]. All mice were housed in a 12-h light/dark cycle with access to food and water ad libitum. Studies were performed with Institutional Animal Care and Use Committee (UMB and Purdue University) approval.\n[…]. Female mice were dosed daily for 5 days via intraperitoneal injection and then monitored for an additional week for weight loss, a sign of toxicity in mice. […] To evaluate the anti-leukemic efficacy in vivo, six-week-old female NSG or NRG mice were injected intravenously with FLT3-ITD expressing acute myeloid leukemia cells (MV4–11), expressing luciferase. […] Dosing (i.p) with the compounds was then started. The mice were dosed with 25 mg/kg of the compounds three times a week (MWF). […] […]."}}}
{"smiles": "Cc1ncc(C(=O)Nc2ccc(CN3CCN(C)CC3)c(C(F)(F)F)c2)cc1C#Cc1cnc(N)c2ncccc12", "note": "[Compound 20]", "values": [{"measurement": "IC50", "setting": "[1]", "value": "4 ± 0.02", "unit": "nM"}, {"measurement": "IC50", "setting": "[2]", "value": "0.9 ± 0.004", "unit": "nM"}, {"measurement": "IC50", "setting": "MOLM-14 cells", "value": "0.2 ± 0.002", "unit": "nM"}, {"measurement": "IC50", "setting": "MV4–11 cells", "value": "0.3 ± 0.004", "unit": "nM"}, {"measurement": "inhibition at 0.5 µM", "setting": "FLT3", "value": 97, "unit": "%"}, {"measurement": "IC50", "setting": "Src; Src 0.6 nM, ATP 100 μM, read-out: IC50 against Src", "value": 12.2, "unit": "nM"}, {"measurement": "inhibition at 0.5 µM", "setting": "Src; inhibitor 500 nM, 100 μM ATP, average of duplicate", "value": 100, "unit": "%"}, {"measurement": "IC50", "setting": "FLT3-ITD", "value": 4.8, "unit": "nM"}, {"measurement": "body weight in efficacy study", "setting": "MV4–11-luc cells; 25 mg/Kg i.p. three times a week, after one week", "value": "lost weight"}, {"measurement": "reduction in leukemia burden", "setting": "MV4–11-luc cells; 25 mg/kg i.p. three times a week (MWF), NSG or NRG mice", "value": "> 99", "unit": "%"}, {"measurement": "tolerability in efficacy study", "setting": "MV4–11-luc cells; dose reduced to 10 mg/kg", "value": "tolerable"}]}
